Data: patent US5475032A, “2,4-disulfonyl phenyl butyl nitrone, its salts, and their use as pharmaceuticals” (Oklahoma Medical Research Foundation, priority 1995, dated 1995)

How the values were obtained:
[1] = tested on: Sprague Dawley rats; test: acute toxicity in male Sprague Dawley rats (Example 14); assay type: in vivo, rat; settings: 1000 mg/kg i.p., after 3 days
Protocol: The compounds were administered at 1000 mg/kg, i.p., to groups of 6 rats. After 3 days lethality was assessed.

[2] = body temperature depression (Example 10); assay type: in vivo; settings: levels as high as 1000 mg/kg, mice and gerbils
Excerpt: Another undesirable systemic effect which has been observed in vivo with nitrone radical traps is a depression in body temperature. This toxicity can have serious health consequences and also can complicate diagnosis of other conditions.

[3] = tested on: lethality from 10 min ischemia; test: lethality protection in aged gerbils from 10 min ischemia (Example 8); assay type: in vivo, gerbil; settings: 30 min before ischemia
[4] = tested on: acute lethal effects of adriamycin; test: adriamycin acute lethality and its prevention by pretreatment, C57BL/6J mice (Example 13); assay type: in vivo; settings: up to 300 mg/kg i.p., without adriamycin
Excerpt: (§1) All injections were intraperitoneal.

[5] = tested on: infarct volume following middle cerebral artery occlusion; test: rat focal ischemia model, permanent middle cerebral artery occlusion (Example 12); assay type: in vivo, Sprague Dawley rats; settings: both studies: 100 mg/kg i.p. then 4.2 mg/kg/hr i.v., or 10 mg/kg i.p. then 0.42 mg/kg/hr i.v., up to 24 h; 3 days post stroke
Excerpt: A pair of studies were done to determine the efficacy of Compound I in a rat focal ischemia model. In this model, Sprague Dawley rats (200-300 g) underwent a permanent middle cerebral artery occlusion (MCAO) to induce a focal stroke.
The rats were sacrificed 3 days post stroke, the tissue was processed histologically using triphenyltetrazolium staining techniques, and the infarct volume, the area of total cell necrosis, was quantitated using image analysis.

[6] = tested on: neuron loss following brain ischemia and reperfusion injury; test: neuronal density, post-ischemia treatment, compound i.p. 30 min after reperfusion following 5 min ischemia (Example 4); assay type: in vivo, gerbil
[7] = tested on: acute lethal effects of adriamycin; test: comparative tests: nitrone pretreatment combined with adriamycin (Example 13); assay type: in vivo, mouse; settings: doses of Compound I up to 300 mg/kg with adriamycin
Excerpt: as §1

[8] = tested on: infarct volume following middle cerebral occlusion; test: infarct volume after middle cerebral occlusion (Example 7); assay type: in vivo, C57BL/6J mice; settings: from 60 min after occlusion for 24 hours
Protocol: The ability of the compound of the invention to reduce infarct volume following an ischemic event was determined.

[9] = tested on: neuronal loss following ischemia; test: protection from neuronal loss, i.v. 60 min after reperfusion onset following 5 min ischemia (Example 5); assay type: in vivo, gerbil; settings: for protection for neuronal loss (neuronal density): 60 min after reperfusion onset
[10] = solubility in water; assay type: physicochemical; settings: free acid
[11] = tested on: temporal/spatial short term memory following ischemia; test: 8-arm radial maze test 24 hours after ischemia (Example 6); assay type: in vivo, gerbil
Protocol: Brain injury can manifest itself as behavioral changes. In this experiment, young adult (3-4 months of age) gerbils were tested to determine their ability to perform an 8-arm maze test 24 hours following an ischemic event as described in Example 1. As compared to nonischemic animals, when untreated they committed many more errors. PBN and compound I were administered to some of the test animals.

[12] = tested on: glutamine synthetase (GS); test: protection of glutamine synthetase against βAP 25-35 (Example 11); assay type: biochemical, gerbil; settings: co-incubation with 0.4 mg/ml BAP 25-35
Protocol: (§2) Cytosolic fractions from gerbil neocortex were prepared and enzyme activities determined. Samples were incubated in the presence of different concentrations of the peptide for 10 min prior to assay. Solid symbols represent the effects of the naturally occurring 25-35 fragment. […] Each point is the mean (+/- s.e.) of 5 observations. βAP derived and other cellular sources of free radicals are an important determinant of the initiation and progression of AD.
(§3) Each point is the mean (+/- s.e.) of 3 observations.

[13] = tested on: creatine kinase (CK); test: protection of creatine kinase against βAP 25-35 (Example 11); assay type: biochemical, gerbil; settings: co-incubation with 0.4 mg/ml BAP 25-35
Protocol: as §2, §3

[14] = tested on: neuron loss following brain ischemia and reperfusion injury; test: neuronal density after 5 min bilateral carotid occlusion, compound i.p. 30 min before ischemia (Example 3); assay type: in vivo, gerbil; settings: for Neuronal nuclei/100 micron field: 30 min before ischemia
Protocol: In the experiments a test compound was administered to groups of six gerbils i.p. as a single dose 30 min before 5 min bilateral carotid occlusion. The density of neuronal nuclei in a 100 micron was measured. Two controls were present--controls which received no test compound and controls which received no test compound and no brain ischemia.

[15] = doses demonstrated to be possible; settings: up to and higher
[16] = tested on: acute lethal effects of adriamycin; test: adriamycin acute lethality and its prevention by pretreatment, DBA/2J mice (Example 13)
Protocol: All injections were intraperitoneal. The acute lethality of adriamycin ranged from 10 to 30 mg/kg.

CC(C)(C)[N+]([O-])=Cc1ccc(S(=O)(=O)O)cc1S(=O)(=O)O [Compound I]
lethality [1]: no lethality | temperature decrease [2]: no measurable temperature decrease | lethality protection (% survived) ([3]; 10 mg/kg): 50% | lethality protection (% survived) ([3]; 32 mg/kg): 75% | lethality protection (% survived) ([3]; 100 mg/kg): 100% | lethality protection (% survived) ([3]; 320 mg/kg): 100% | lethality protection ([3]; Compound I: at high levels): complete protection | effect on survival [4]: no effect on survival | protection (infarct volume) [5]: approximately 70% | Neuronal nuclei/100 micron field ([6]; 32 mg/kg i.p.): 1.83 Neuronal nuclei/100 micron field | Neuronal nuclei/100 micron field ([6]; 50 mg/kg i.p.): 2.73 Neuronal nuclei/100 micron field | Neuronal nuclei/100 micron field ([6]; 100 mg/kg i.p.): 3.41 Neuronal nuclei/100 micron field | Neuronal nuclei/100 micron field ([6]; 320 mg/kg i.p.): 3.55 Neuronal nuclei/100 micron field | Neuronal nuclei/100 micron field ([6]; 1000 mg/kg i.p.): 3.68 Neuronal nuclei/100 micron field | combined toxicity [7]: did not produce any combined toxicity | Infarct Volume ([8]; 1.0 mg/kg/hr i.v.): 16.8 mm^3 | Infarct Volume ([8]; 10 mg/kg/hr i.v.): 12.7 mm^3 | Infarct Volume ([8]; 100 mg/kg/hr i.v.): 8.3 mm^3 | protection for neuronal loss (neuronal density) ([9]; 0.5 mg/kg single dose i.v.): 1.25 | protection for neuronal loss (neuronal density) ([9]; 1.0 mg/kg single dose i.v.): 1.75 | protection for neuronal loss (neuronal density) ([9]; 10 mg/kg single dose i.v.): 2.43 | effect on neuronal density in control gerbils ([9]; control gerbils without brain injury): Neither PBN nor Compound I. had an effect on neuronal density | solubility [10]: > 1000 mg/mL | errors in 8-arm radial maze ([11]; 1.0 mg/kg/hr for 24 hours): 14.63 errors | errors in 8-arm radial maze ([11]; 32 mg/kg/hr for 24 hours): 7.19 errors | errors in 8-arm radial maze ([11]; 50 mg/kg/hr for 24 hours): 4.28 errors | errors in 8-arm radial maze ([11]; 100 mg/kg/hr for 24 hours): 4.11 errors | error levels ([11]; high doses): error levels indistinguishable from those of nonischemic animals | protection of GS against the effects of βAP fragments [12]: complete protection | protection of CK against the effects of βAP fragments [13]: complete protection | Neuronal nuclei/100 micron field ([14]; 3.2 mg/kg i.p.): 1.43 Neuronal nuclei/100 micron field | Neuronal nuclei/100 micron field ([14]; 10 mg/kg i.p.): 2.57 Neuronal nuclei/100 micron field | Neuronal nuclei/100 micron field ([14]; 32 mg/kg i.p.): 3.53 Neuronal nuclei/100 micron field | Neuronal nuclei/100 micron field ([14]; 50 mg/kg i.p.): 4.11 Neuronal nuclei/100 micron field | Neuronal nuclei/100 micron field ([14]; 100 mg/kg i.p.): 4.18 Neuronal nuclei/100 micron field | Neuronal nuclei/100 micron field ([14]; 320 mg/kg i.p.): 4.23 Neuronal nuclei/100 micron field | Neuronal nuclei/100 micron field ([14]; 1000 mg/kg i.p.): 4.11 Neuronal nuclei/100 micron field | Neuronal nuclei/100 micron field ([14]; 3200 mg/kg i.p.): 4.18 Neuronal nuclei/100 micron field | protection against neuronal loss ([14]; high dose levels): complete protection against neuronal loss | dose demonstrated to be possible [15]: ≥ 1000 mg/kg/h | maximally tolerated dose of adriamycin in combination ([16]; combination with adriamycin): marked increase in the maximally tolerated dose | effect on survival ([16]; up to 300 mg/kg i.p., without adriamycin, DBA/2J): no effect on survival
